From patent publication EP4806894A1, “TNAP INHIBITORY COMPOUND AND USE THEREOF” (Rednvia Co., Ltd., priority 2023, dated 2025) come the findings set out here.

In one experiment the target is T1, TNAP (Homo sapiens, UniProt P05186).
T1 sequence (P05186 18-502 limits assumed): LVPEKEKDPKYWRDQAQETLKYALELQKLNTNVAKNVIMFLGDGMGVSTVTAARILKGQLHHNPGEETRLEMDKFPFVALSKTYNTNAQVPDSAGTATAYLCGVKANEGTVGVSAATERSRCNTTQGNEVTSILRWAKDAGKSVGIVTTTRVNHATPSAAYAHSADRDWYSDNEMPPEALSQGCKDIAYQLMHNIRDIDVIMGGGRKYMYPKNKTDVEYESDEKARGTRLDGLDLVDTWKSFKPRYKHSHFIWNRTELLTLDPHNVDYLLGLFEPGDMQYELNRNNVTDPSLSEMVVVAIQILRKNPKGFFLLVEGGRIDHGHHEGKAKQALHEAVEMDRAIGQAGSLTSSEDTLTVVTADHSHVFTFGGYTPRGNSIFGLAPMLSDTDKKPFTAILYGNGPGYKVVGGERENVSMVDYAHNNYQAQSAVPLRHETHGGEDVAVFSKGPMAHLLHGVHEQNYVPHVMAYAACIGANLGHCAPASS
The experiment in a line: TNAP inhibitory activity, colorimetric assay (alkaline phosphatase assay kit ab83369, pNPP substrate). Type of experiment: biochemical. The settings on record: TNAP enzyme, 2 hours at room temperature, absorbance 405 nm.

Another experiment deals with saos-2 cells. Description: Anticalcification efficacy in saos-2 cells (osteogenic medium, Alizarin Red staining). Format: cell-based. The settings on record: Homo sapiens, 168 h, test compound 1 µM, 7 days osteogenic medium, Alizarin Red absorbance 540 nm, read-out: calcification inhibition. The method in brief:
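Saos-2 cells at 80–90% confluence induced for 7 days in osteogenic medium (DMEM, 100 nM dexamethasone, 10 mM β-glycerophosphate, 0.05 mM ascorbic acid), compound (0.5, 1, 5, 10 […]) added with each medium change. Alizarin Red staining eluted with cetylpyridinium chloride, A540 read; inhibition taken against OM-only absorbance.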

Counter-ions that a name gives are not always drawn.

At TNAP, `COc1ccc(-c2cnn(C3CCN(C)CC3)c2)cc1S(=O)(=O)Nc1cnc2c(c1)C(=O)NCC2` [Example 65, 2-methoxy-5-(1-(1-methylpiperidine-4-yl)-1H-pyrazole-4-yl)-N-(5-oxo-5,6,7,8-tetrahydro-1,6-naphthyridine-3-yl)benzenesulfonamide] displayed an IC50 of no less than 1000 nM. The inhibition at 1 µM in the experiment on saos-2 cells was less than 0%.
`CCNC(=O)Cn1cc(-c2ccc(OC)c(S(=O)(=O)Nc3cnc4c(c3)C(=O)NCC4)c2)cn1` [Example 66, N-ethyl-2-(4-(4-methoxy-3-(N-(5-oxo-5,6,7,8-tetrahydro-1,6-naphthyridine-3-yl)sulfamoyl)phenyl)-1H-pyrazole-1-yl)acetamide] returned an IC50 on TNAP of no less than 1000 nM. Also, the inhibition at 1 µM in the experiment with saos-2 cells is less than 0%.
As to `CCNC(=O)CCc1ccc(-c2ccc(OC)c(S(=O)(=O)Nc3cnc4c(c3)C(=O)NCC4)c2)cc1` [Example 67, N-ethyl-3-(4'-methoxy-3'-(N-(5-oxo-5,6,7,8-tetrahydro-1,6-naphthyridine-3-yl)sulfamoyl)-[1,1'-biphenyl]-4-yl)propanamide], the concentration for half-maximal inhibition (IC50) against TNAP fell in the range of 100 to 1000 nM. The inhibition at 1 µM in the experiment on saos-2 cells is 0 to 50%.
The matching figures for `CCOC(=O)Cn1cc(-c2ccc(OC)c(S(=O)(=O)Nc3cnc4c(c3)C(=O)NCC4)c2)cn1` [Example 68, ethyl 2-(4-(4-methoxy-3-(N-(5-oxo-5,6,7,8-tetrahydro-1,6-naphthyridine-3-yl)sulfamoyl)phenyl)-1H-pyrazole-1-yl)acetate]: 10 to 100 nM and no less than 50%.
In turn, `COc1ccc(-c2cnn(C(C)c3nc(C(C)C)no3)c2)cc1S(=O)(=O)Nc1cnc2c(c1)C(=O)NCC2` (stereo not drawn) [Example 69, 5-(1-(1-(3-isopropyl-1,2,4-oxadiazole-5-yl)ethyl)-1H-pyrazole-4-yl)-2-methoxy-N-(5-oxo-5,6,7,8-tetrahydro-1,6-naphthyridine-3-yl)benzenesulfonamide] yielded an IC50 on TNAP of 100 to 1000 nM. Besides, the inhibition at 1 µM in the experiment with saos-2 cells was less than 0%.
The matching figures for `COc1ccc(-c2cnn(C(C)c3nc(C)no3)c2)cc1S(=O)(=O)Nc1cnc2c(c1)C(=O)NCC2` (stereo not drawn) [Example 70, 2-methoxy-5-(1-(1-(3-methyl-1,2,4-oxadiazole-5-yl)ethyl)-1H-pyrazole-4-yl)-N-(5-oxo-5,6,7,8-tetrahydro-1,6-naphthyridine-3-yl)benzenesulfonamide]: 100 to 1000 nM and no less than 50%.
The compound `COc1ccc(-c2cnn(C(C)c3nc(-c4ccc(F)cc4)no3)c2)cc1S(=O)(=O)Nc1cnc2c(c1)C(=O)NCC2` (stereo not drawn) [Example 71, 5-(1-(1-(3-(4-fluorophenyl)-1,2,4-oxadiazole-5-yl)ethyl)-1H-pyrazole-4-yl)-2-methoxy-N-(5-oxo-5,6,7,8-tetrahydro-1,6-naphthyridine-3-yl)benzenesulfonamide] yielded an IC50 on TNAP of no less than 1000 nM. In the experiment with saos-2 cells, the inhibition at 1 µM was less than 0%.
At TNAP, `COc1ccc(-c2cnn(C(C)C)c2)cc1S(=O)(=O)Nc1cnc2c(c1)C(=O)NCC2` [Example 72, 5-(1-isopropyl-1H-pyrazole-4-yl)-2-methoxy-N-(5-oxo-5,6,7,8-tetrahydro-1,6-naphthyridine-3-yl)benzenesulfonamide] registered a half-maximal inhibitory concentration (IC50) of 10 to 100 nM. Also, in the experiment with saos-2 cells, the inhibition at 1 µM was no less than 50%.
At TNAP, `COc1ccc(-c2cnn(C(F)(F)F)c2)cc1S(=O)(=O)Nc1cnc2c(c1)C(=O)NCC2` [Example 73, 2-methoxy-N-(5-oxo-5,6,7,8-tetrahydro-1,6-naphthyridine-3-yl)-5-(1-(trifluoromethyl)-1H-pyrazole-4-yl)benzenesulfonamide] showed an IC50 of 100 to 1000 nM. Besides, the inhibition at 1 µM in the experiment with saos-2 cells is no less than 50%.
Take `COc1ccc(-c2cnn(C3CC3)c2)cc1S(=O)(=O)Nc1cnc2c(c1)C(=O)NCC2` [Example 74, 5-(1-cyclopropyl-1H-pyrazole-4-yl)-2-methoxy-N-(5-oxo-5,6,7,8-tetrahydro-1,6-naphthyridine-3-yl)benzenesulfonamide]: the IC50 against TNAP lay in the range of 100 to 1000 nM. In the experiment on saos-2 cells, the inhibition at 1 µM is no less than 50%.
Compound `COc1ccc(-c2cnn(S(C)(=O)=O)c2)cc1S(=O)(=O)Nc1cnc2c(c1)C(=O)NCC2` [Example 75, 2-methoxy-5-(1-(methylsulfonyl)-1H-pyrazole-4-yl)-N-(5-oxo-5,6,7,8-tetrahydro-1,6-naphthyridine-3-yl)benzenesulfonamide] came in with an IC50 against TNAP of 100 to 1000 nM. Moreover, the inhibition at 1 µM in the experiment on saos-2 cells was no less than 50%.
On TNAP, `COc1ccc(-c2cnn(C3CCOCC3)c2)cc1S(=O)(=O)Nc1cnc2c(c1)C(=O)NCC2` [Example 76, 2-methoxy-N-(5-oxo-5,6,7,8-tetrahydro-1,6-naphthyridine-3-yl)-5-(1-(tetrahydro-2H-pyran-4-yl)-1H-pyrazole-4-yl)benzenesulfonamide] came in with an IC50 of 100 to 1000 nM. Further, in the experiment with saos-2 cells, the inhibition at 1 µM is no less than 50%.
For the compound `COc1ccc(-c2ccc(F)nc2)cc1S(=O)(=O)Nc1cnc2c(c1)C(=O)NCC2` [Example 77, 5-(6-fluoropyridine-3-yl)-2-methoxy-N-(5-oxo-5,6,7,8-tetrahydro-1,6-naphthyridine-3-yl)benzenesulfonamide], on TNAP, the IC50 was 100 to 1000 nM. Besides, the inhibition at 1 µM in the experiment on saos-2 cells was no less than 50%.
The matching figures for `COc1ccc(-c2cnc(N)nc2C(F)(F)F)cc1S(=O)(=O)Nc1cnc2c(c1)C(=O)NCC2` [Example 78, 5-(2-amino-4-(trifluoromethyl)pyrimidine-5-yl)-2-methoxy-N-(5-oxo-5,6,7,8-tetrahydro-1,6-naphthyridine-3-yl)benzenesulfonamide]: no less than 1000 nM and less than 0%.
Regarding `COc1ccc(-c2cnn(C3COC3)c2)cc1S(=O)(=O)Nc1cnc2c(c1)C(=O)NCC2` [Example 79, 2-methoxy-5-(1-(oxetane-3-yl)-1H-pyrazole-4-yl)-N-(5-oxo-5,6,7,8-tetrahydro-1,6-naphthyridine-3-yl)benzenesulfonamide], at TNAP, the IC50 was in the range of 100 to 1000 nM. In addition, in the experiment with saos-2 cells, the inhibition at 1 µM was no less than 50%.
For the compound `COc1ccc(-c2cnn(CCO)c2)cc1S(=O)(=O)Nc1cnc2c(c1)C(=O)NCC2` [Example 80, 5-(1-(2-hydroxyethyl)-1H-pyrazole-4-yl)-2-methoxy-N-(5-oxo-5,6,7,8-tetrahydro-1,6-naphthyridine-3-yl)benzenesulfonamide], the IC50 against TNAP was in the range of 100 to 1000 nM. In addition, in the experiment with saos-2 cells, the inhibition at 1 µM is no less than 50%.
Compound `COc1ccc(-c2cn(C(C)C)nc2C(F)(F)F)cc1S(=O)(=O)Nc1cnc2c(c1)C(=O)NCC2` [Example 81, 5-(1-isopropyl-3-(trifluoromethyl)-1H-pyrazole-4-yl)-2-methoxy-N-(5-oxo-5,6,7,8-tetrahydro-1,6-naphthyridine-3-yl)benzenesulfonamide] yielded a half-maximal inhibitory concentration (IC50) on TNAP of 10 to 100 nM. Also, the inhibition at 1 µM with saos-2 cells was no less than 50%.
`CCn1cc(-c2ccc(OC)c(S(=O)(=O)Nc3cnc4c(c3)C(=O)NCC4)c2)c(C(F)(F)F)n1` [Example 82, 5-(1-ethyl-3-(trifluoromethyl)-1H-pyrazole-4-yl)-2-methoxy-N-(5-oxo-5,6,7,8-tetrahydro-1,6-naphthyridine-3-yl)benzenesulfonamide] displayed a half-inhibitory concentration (IC50) against TNAP of no more than 10 nM. Further, the inhibition at 1 µM with saos-2 cells was no less than 50%.
Consider `COc1ccc(-c2cnoc2)cc1S(=O)(=O)Nc1cnc2c(c1)C(=O)NCC2` [Example 83, 5-(isoxazole-4-yl)-2-methoxy-N-(5-oxo-5,6,7,8-tetrahydro-1,6-naphthyridine-3-yl)benzenesulfonamide], for which the concentration for half-maximal inhibition (IC50) at TNAP lay within 10 to 100 nM. The inhibition at 1 µM in the experiment on saos-2 cells is no less than 50%.
Turning to `COc1ccc(-c2c(C)noc2C)cc1S(=O)(=O)Nc1cnc2c(c1)C(=O)NCC2` [Example 84, 5-(3,5-dimethylisoxazole-4-yl)-2-methoxy-N-(5-oxo-5,6,7,8-tetrahydro-1,6-naphthyridine-3-yl)benzenesulfonamide], at TNAP, the IC50 was in the range of 10 to 100 nM. Besides, the inhibition at 1 µM with saos-2 cells was no less than 50%.
`COc1ccc(-c2cnn(C3CCN(C(=O)OC(C)(C)C)CC3)c2)cc1S(=O)(=O)Nc1cnc2c(c1)C(=O)NCC2` [Example 85, tert-butyl 4-(4-(4-methoxy-3-(N-(5-oxo-5,6,7,8-tetrahydro-1,6-naphthyridine-3-yl)sulfamoyl)phenyl)-1H-pyrazole-1-yl)piperidine-1-carboxylate] registered an IC50 against TNAP of 100 to 1000 nM. For the same compound, the inhibition at 1 µM with saos-2 cells is less than 0%.
The compound `COc1ccc(-c2cnn(C3CCNCC3)c2)cc1S(=O)(=O)Nc1cnc2c(c1)C(=O)NCC2` [Example 86, 2-methoxy-N-(5-oxo-5,6,7,8-tetrahydro-1,6-naphthyridine-3-yl)-5-(1-(piperidine-4-yl)-1H-pyrazole-4-yl)benzenesulfonamide hydrochloride] had an IC50 against TNAP of 100 to 1000 nM. In the experiment on saos-2 cells, the inhibition at 1 µM is less than 0%.
The compound `COc1ccc(Br)cc1S(=O)(=O)Nc1cnc2c(c1)C(=O)N(C)CC2` [Example 87, 5-bromo-2-methoxy-N-(6-methyl-5-oxo-5,6,7,8-tetrahydro-1,6-naphthyridine-3-yl)benzenesulfonamide] had a concentration for half-maximal inhibition (IC50) at TNAP of 100 to 1000 nM. In the experiment on saos-2 cells, the inhibition at 1 µM is less than 0%.
In the case of `COc1ccc(Br)cc1S(=O)(=O)Nc1cnc2c(c1)CN(C(=O)OC(C)(C)C)CC2` [Example 88, tert-butyl 3-((5-bromo-2-methoxyphenyl)sulfonamido)-7,8-dihydro-1,6-naphthyridine-6(5H)-carboxylate], the half-inhibitory concentration (IC50) at TNAP is 100 to 1000 nM. Further, the inhibition at 1 µM in the experiment with saos-2 cells is no less than 50%.

A word on the IC50: it is the concentration that gives 50% inhibition. The low end stands for inhibition by little substance, the high end for a need for much substance. The term inhibition denotes how much of the control response was suppressed.
